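All cell lines were grown in 96-well plates and treated with compound for 48 hours. GI50 marks 50% less growth. Definition used: TGI = concentration required for complete inhibition of growth.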

Experiment in all cases: NCI anticancer screen, dose series, 48 h
The test system of test [1] is DU-145 prostate.
The subject of test [2] is OVCAR-3 ovarian.
The subject of test [3] is T-47D breast.
Test [4] concerns UACC-257 melanoma.
Test [5] relates to CCRF-CEM leukemia.
For test [6], the system named is A498 renal.
For test [7], the system named is SF-539 CNS.
For test [8], the system named is SK-MEL-5 melanoma.
Test [9] concerns SN12C renal.
Test [10] deals with MCF7 breast.

For `Cc1ccc(CC(=O)Nc2ccc(NC(=O)CNC(=O)/C=C/c3ccc(-c4ccccc4)cc3)cc2C(=O)c2ccccc2)cc1`, the TGI in test [1] was determined as 7.54 µM; in test [2], 19.1 µM; in test [3], 3.89 µM; in [4], 22.7 µM; in [5], 17.1 µM; in test [6], 8.73 µM. The TGI in test [7] came out at 8.85 µM; in [8], 6.32 µM; in [9] it was 9.93 µM; in test [10] it was 3.69 µM.
Turning to `C=C1[C@H](OCC(C)C)[C@@H](OC(=O)C(C)CC)[C@@H](O)C(C)(C)/C=C/[C@H](C)C(=O)[C@@]2(O)C[C@H](C)[C@H](O)[C@@H]2[C@H]1OC(=O)C(C)CC` (stereo not given in full), the TGI in test [1] was above 20 µM; in test [2], above 13.7 µM; in [3], above 20 µM; in test [4] it was above 14.1 µM; in test [5], above 9.76 µM; in test [6], 12.2 µM. In addition, the TGI in test [7] was above 14.9 µM; in [8], above 10.8 µM; in test [9], above 20 µM; in test [10], above 16 µM.
Regarding `CC(C)(CN1CCCCC1)C(=O)/C=C/c1c(Cl)cccc1Cl`, the TGI in test [1] stood at 2.44 µM; in [2] it was 2.4 µM; in test [3] it was 1.44 µM; in test [4] it was 6.36 µM; in test [5] it was 2.73 µM; in [6], 4.96 µM. In addition, the TGI in test [7] is 6.71 µM; in [8], 2.92 µM; in [9], 3.1 µM; in [10], 5.31 µM.
Take `Cc1ccnc2sc3ccccc3c(=O)c12`: the TGI in test [1], in test [2], in test [3], in test [4], in test [5] and in test [6] was above 100 µM in each case. Also, the TGI is above 100 µM in test [7], 73.4 µM in test [8], above 100 µM in test [9] and above 100 µM in [10].
Take `COC1CCC(n2c([C@@H]3CCCC(=O)N3c3ccc(F)c(F)c3)nc3cc(-c4c(C)noc4C)ccc32)CC1` (stereo not given in full): the GI50 in test [1] was 16.8 µM; in [2] it was 10.5 µM; in [3] it was 2.03 µM; in test [4], 2.54 µM; in [5], 4.66 µM; in test [6] it was 5.99 µM. The GI50 is 9.79 µM in [7], 5.81 µM in test [8], 10.3 µM in [9] and 0.626 µM in test [10]. Besides, the TGI in [1] was 54.2 µM; in test [2], 32.3 µM; in test [3] it was 50.7 µM; in [4] it was above 100 µM; in test [5], 57.7 µM; in [6], 20 µM. Moreover, the TGI in test [7] turned out to be 23 µM; in [8], 18.6 µM; in [9], 29.6 µM; in [10] it was 15.1 µM.
Consider `CN(/N=C/c1ccc(Cl)c(Cl)c1)C1=NCCN1`, for which the TGI was above 100 µM in test [1]; above 100 µM in [2]; 90.8 µM in test [3]; 45.2 µM in test [4]; above 100 µM in test [5]; 28.1 µM in [6]. For the same molecule, the TGI was 40.4 µM in test [7], 30.7 µM in [8], 92.7 µM in test [9] and 49.8 µM in [10].
Turning to `COC1=CCC2=C(CCN(C(=O)C3CCC3)C2Cc2ccc(OC)c(O)c2)C1` (stereo not given), the TGI in [1] was 51.9 µM; in [2], 27.4 µM; in test [3] it was 62.4 µM; in test [4] it was above 100 µM; in [5] it was above 100 µM; in test [6], 84.5 µM. Moreover, the TGI in test [7] is above 100 µM; in [8] it was 73.3 µM; in test [9], 54.3 µM; in [10], 50.1 µM.
As to `CN(C)/C=N/S(=O)(=O)c1nn2c(C=O)c(-c3cc4ccccc4oc3=O)nc2s1`, the TGI in test [1] was above 36.6 µM; in [2], 17.3 µM; in test [3], 18.6 µM; in test [4], 29.3 µM; in test [5], 7.33 µM; in [6] it was 55.3 µM. The TGI is 61 µM in test [7], 12 µM in [8], 24.5 µM in [9] and above 36.6 µM in test [10].
In the case of `COC1=C(OC)C(=O)C(Cc2c(Cl)nc3n2CCS3)=C(C)C1=O`, the TGI in test [1] came out at 40 µM; in [2], 37.2 µM; in test [3], 54.1 µM; in test [4], 22.2 µM; in [5], 8.98 µM; in test [6], 35.6 µM. For the same molecule, the TGI in test [7] worked out at 28.1 µM; in test [8] it was 23.9 µM; in test [9] it was 31.3 µM; in test [10], 33 µM.

Values taken from PubChem BioAssay (NCI).
